Test: Human HepG2 cell viability assay in 384 well format
Assay type: toxicity, cell-based
Design: dose 125 nL, time 70.5 hour; cytotoxicity at 70.5 h: concentration not given beside the values
Details: HepG2 cells, read-out: Inhibition

SMILES | cytotoxicity at 70.5 h [%]
Cc1cccc2nc(C(=O)N3CCCC[C@]4(C)NC(=O)CCC[C@H]34)cn12 | -5.3
CC(C)c1noc(CCCC(=O)NC2CCS(=O)(=O)C2)n1 (configuration not stated) | -0.791
CN(Cc1nc(COc2ccccc2)no1)CC1Cc2ccccc2O1 (configuration not stated) | -3.44
COc1cccc(CN2C[C@@H](F)[C@@H](OCc3nc4cnccc4[nH]3)C2)c1 | 2.35
Cc1nccn1CCC1CCCCN1Cc1cnc(N(C)C)nc1 (configuration not stated) | -3.91
CCCS(=O)(=O)N1CCOC2(COCCN(C(C)=O)C2)C1 (configuration not stated) | -8.79
Cn1ccc2c(C(=O)NCCCS(C)(=O)=O)cccc21 | 5.4
COc1ccc(CN(C)Cc2c(C)noc2C)c(Cl)c1OC | -8.81
Cc1cc2nc(CO[C@H]3CN(C4CCN(C)CC4)C[C@H]3F)[nH]c2cc1C | -4.5
N#CCCCS(=O)(=O)NC1(c2ccc(F)cc2)CC1 | -8.06
CC(=O)NCC1CCC2(CCN(c3ncc(C(C)=O)c(C)n3)CC2)O1 (configuration not stated) | -2.5
NC(=O)CCN(C(=O)c1cccc2c1OCO2)c1ccccc1 | -14
Nc1nc(N2CCCCC2)ncc1C(=O)NCc1ccc(F)c(Cl)c1 | -20
c1ccc(-c2cc(CNCCCC3CCOC3)c3nnnn3c2)cc1 (configuration not stated) | 5.9
Cn1cnc(S(=O)(=O)N2C[C@H]3CN(Cc4cccnc4)C[C@H]3C2)c1 | 1.66
COC(=O)[C@@H](Nc1nc(C2CCCC2)nc2c1cnn2C)[C@@H](C)O | -11.8
Cc1ncc(C)c(N2CCCC(CO)(Cc3cccc(Cl)c3)C2)n1 (configuration not stated) | 1.75
O=C(NCCN1CCOCC1)c1ccc(-c2ccccc2)[nH]c1=O | -2.93
CC(=O)c1cc(CC(=O)NCc2cccc(F)c2F)cs1 | -8.12

SMILES | cytotoxicity at 70.5 h [%]
Cc1ccccc1C(=O)N1CCC2(CCC(C(=O)NCC3CC3)O2)CC1 (configuration not stated) | -18.9
Cc1noc(C)c1C(=O)NCCN1CCOCC1 | 1.59
COc1ncccc1CN1C[C@H]2C[C@@H](C(=O)NCC3CC3)N(C)[C@H]2C1 | -12.9
c1cnn(CC2CCCN2c2ncnc3ccsc23)c1 (configuration not stated) | 10.7
COCCOc1cccc(C(=O)N2CCCC(n3cccn3)C2)c1 (configuration not stated) | -14.7
Cc1nc(-c2ccccc2F)sc1C(=O)N1CCN(C)CC1 | -10.6
Cc1nc(Cn2cc(C#N)c(=O)c3ccccc32)no1 | -5.75
CCN1CCOC(CNCc2ccccc2OCC(=O)N(C)C)C1 (configuration not stated) | -4.93
CCS(=O)(=O)N1CCCC(n2nnn(-c3ccccc3)c2=O)C1 (configuration not stated) | -4.32
COc1ccc(-n2ncc(C(C)NCc3cnc(SC)nc3)c2C)cc1 (configuration not stated) | -3.63
Cc1nc(CN(C)C2CCN(CCc3cnn(C)c3)C2)no1 (configuration not stated) | 18.2
O=C(c1ccc[nH]1)N1CCC2(CC1)C(=O)Nc1ccccc12 | -14.9
COc1cc(N2CCCC(c3nccn3CCN(C)C)C2)nc(N)n1 (configuration not stated) | -8.19
CN(C)c1ccnc(C2CCCN2)n1 (configuration not stated) | -3.83
Cc1ccc(N2CC3(COCCN(Cc4ccncc4)C3)OCC2=O)s1 (configuration not stated) | 3.84
CN(C(=O)Nc1ccccn1)C1CCCN(c2ccccc2)C1=O (configuration not stated) | 3.77
COCCN(CCC#N)S(=O)(=O)c1cc(F)ccc1F | -2.55
N#Cc1ccc(NCCCOCC2CCOC2)c(F)c1 (configuration not stated) | 6.96
Cc1cc(C(F)(F)F)nn1CC(C)C(=O)Nc1cccnc1 (configuration not stated) | -3.81

SMILES | cytotoxicity at 70.5 h [%]
CC(C)NC(=O)[C@H]1CN(Cc2ccccc2)C[C@@H]1C(=O)c1ccccc1 | -1.04
COc1cccc2c1OCC(C(=O)N1CCN(CCS(C)(=O)=O)CC1)C2 (configuration not stated) | -4.99
CC(=O)N1CCC(N2CCOC(CC3CCCCC3)C2)CC1 (configuration not stated) | -4.68
COCC1CCN(CCCc2cccc(OC)c2)CC1 | 30.7
Cc1ccc(CC(=O)N2CCCCC2Cn2cccn2)cn1 (configuration not stated) | -0.224
Cc1noc(C)c1CNCc1nn(-c2ccccc2)c2c1CCC2 | -3.23
Cc1nc2cc(C(=O)N3CCn4c(nnc4C4CC4)C3)ccc2s1 | -2.23
O=C1CCc2cc(-c3csc(CCN4CCOC4=O)n3)ccc2N1 | 2.18
COCCCC1(CO)CCCN(Cc2cccc(C#N)c2)C1 (configuration not stated) | -5.8
O=C1NC2(Cc3ccccc31)CN(CC1CCCC1)C2 | -11.8
CC(CN1CCN(C)CC1)NC(=O)c1cc(Cl)c2c(c1)OCO2 (configuration not stated) | -0.705
CCC(CO)N(Cc1cccs1)C(=O)CSC (configuration not stated) | 11.9
NC(=O)C1CCN(C(=O)NCc2ccc(-c3ccn[nH]3)cc2)CC1 | -6.11
FC(F)(F)c1cc(C2CCCN(Cc3cccnc3)C2)n[nH]1 (configuration not stated) | 9.85
CC(C)c1cc(NCc2csc(N(C)C)n2)nc(N)n1 | 17.1
Nc1cc2c(nn1)CCN(C(=O)CCC1CCCCC1)C2 | -11.1
Cc1ccnc(C2CCCN2C(=O)c2cnccn2)n1 (configuration not stated) | -9.28
C[C@@H]1CN(c2ccc(Cl)cn2)CC[C@@]1(O)C1CCOCC1 | -1.93
Cc1noc([C@@H]2C[C@H]3OCC[C@H]3N(Cc3cc(C)c(C)o3)C2)n1 | -6.09

— ChEMBL document CHEMBL3507680, “University of Dundee, Gates Library screen for HepG2 cell viability”
